Results from patent publication US6864068B2, “Antifungal proteins” (Syngenta Limited, priority 1995, dated 2005).

How the values were obtained:
Type in all cases: cell-based
Botrytis cinerea = test: Antifungal activity in three media differing in ionic strength (Table 3); conditions: for IC50 VALUES, B cinerea, SMF + 1 mM CaCl2/50 mM KCl / IC50 VALUES, B cinerea, SMF + 5 mM CaCl2/50 mM KCl / IC50 VALUES, B cinerea, SMF: 72 hours; for activity against B cinerea compared with Rs-AFP2, in words: Table 3 data
Description: (§1) The antifungal activity of the G9R and V39R Rs-AFP2 isoforms was also assessed on a set of seven different phytopathogenic fungi in three media differing in ionic strength: SMF−, SMF plus 1 mM CaCl2 and 50 mM KCl, and SMF plus 5 mM CaCl2 and 50 mM KCl. The fungi tested were: Alternaria brassicicola, Ascochyta pisi, Botrytis cinerea, Fusarium culmorum, Nectria haematococca, Phoma betae and Verticillium dahliae.

Phoma betae = test: as above; conditions: 72 hours
Description: as §1

Ascochyta pisi = test: as above; conditions: for IC50 VALUES, A pisi, SMF + 1 mM CaCl2/50 mM KCl / IC50 VALUES, A pisi, SMF + 5 mM CaCl2/50 mM KCl / IC50 VALUES, A pisi, SMF: 72 hours; for activity against A pisi compared with Rs-AFP2, in words: Table 3 data
Description: as §1

Verticillium dahliae = test: as above; conditions: for IC50 VALUES, V dahliae, SMF + 1 mM CaCl2/50 mM KCl / IC50 VALUES, V dahliae, SMF + 5 mM CaCl2/50 mM KCl / IC50 VALUES, V dahliae, SMF: 96 hours; for fold activity relative to Rs-AFP2 against V dahliae: SMF plus 1 mM CaCl2 and 50 mM KCl
Description: as §1

Fusarium culmorum = test: as above; conditions: for IC50 VALUES, F culmorum, SMF + 1 mM CaCl2/50 mM KCl / IC50 VALUES, F culmorum, SMF + 5 mM CaCl2/50 mM KCl / IC50 VALUES, F culmorum, SMF: 96 hours; for fold activity relative to Rs-AFP2 against F culmorum: SMF plus 1 mM CaCl2 and 50 mM KCl
Description: as §1

Alternaria brassicicola = test: as above; conditions: for IC50 VALUES, A brassicicola, SMF + 1 mM CaCl2/50 mM KCl / IC50 VALUES, A brassicicola, SMF + 5 mM CaCl2/50 mM KCl / IC50 VALUES, A brassicicola, SMF: 72 hours; for activity against A brassicola compared with Rs-AFP2, in words: Table 3 data
Description: as §1

Nectria haematococca = test: as above; conditions: for IC50 VALUES, N haematococca, SMF + 1 mM CaCl2/50 mM KCl / IC50 VALUES, N haematococca, SMF + 5 mM CaCl2/50 mM KCl / IC50 VALUES, N haematococca, SMF: 72 hours; for fold activity relative to Rs-AFP2 against N haematococca: SMF plus 1 mM CaCl2 and 50 mM KCl
Description: as §1

F culmorum [1] = test: Growth inhibition in SMF with varying CaCl2 or KCl (FIG. 7); conditions: for reduction of antifungal activity by cations, compared with wild-type Rs-AFP2: FIG. 7; for activity in the presence of 100 mM KCl: SMF with 100 mM KCl, FIG. 7, 10 μg/ml; for growth inhibition in the presence of 5mM CaCl2: protein 10 μg/ml, SMF with 5mM CaCl2
Description: Their antifungal activity was determined in SMF with increasing Ca^2+ or K^+ concentration and compared with that of plant-derivable wild type Rs-AFP2 (isolated from seed) as well as yeast purified Rs-AFP2. FIG. 7 is a graph of the percentage growth inhibition of F culmorum caused by 10 μg/ml of yeast-purified Rs-AFP2 (SEQ ID NO: 20) (open circles), seed-purified Rs-AFP2 (SEQ ID NO: 77) (closed circles), Rs-AFP2/G9R (SEQ ID NO: 38) (squares) and Rs-AFP2/V39R (SEQ ID NO: 43) (triangles) in a medium consisting of SMF with varying concentrations of CaCl2 (panel A) and KCl (panel B).

F culmorum [2] = test: Specific antifungal activity of Rs-AFP2 isoforms in SMF− and SMF+ media; set-up: IC50 SMF− / IC50 SMF+: unit not given here; conditions: for RELATIVE SPECIFIC ACTIVITY (%) IN MEDIUM SMF+ / RELATIVE SPECIFIC ACTIVITY (%) IN MEDIUM SMF−: 1/IC50 of mutant divided by that of yRs-AFP2 x 100, 48 hour incubation, preliminary tests; for RELATIVE SPECIFIC ACTIVITY (%) IN MEDIUM SMF+: SMF with 1 mM CaCl2 and 50 mM KCl; for RELATIVE SPECIFIC ACTIVITY (%) IN MEDIUM SMF−: low ionic strength medium; for IC50 SMF+ / IC50 SMF−: 72 hours growth, triplicate; for IC50 SMF+: high salt medium (1 mM CaCl2, 50 mM KCl); for IC50 SMF− / effect of substitution on antifungal activity in SMF−, in words: low salt medium; for effect of substitution on antifungal activity in SMF+, in words / effect of substitution on antifungal activity in SMF−, in words: Table 2 tests; for effect of substitution on antifungal activity in SMF+, in words: high salt medium; for relative specific antifungal activity (1/IC50), FIG. 6, in words: medium SMF+, Rs-AFP2 set at 100
Description: For each isoform, two independent purifications were carried out and the antifungal activity was determined in duplicate using F culmorum as a test fungus in two different media: a low ionic strength medium called SMF-(Terras et al, 1992, J Biol Chem, 267:15301-15309) and the same medium supplemented with 1 mM CaCl2 and 50 mM KCl called SMF+. The presence of salts in the test medium, especially salts with divalent cations, reduces the specific activity of Rs-AFP2. Seed-purified as well as yeast-expressed wild type Rs-AFP2 served as a control in the assays.
The relative specific activity is expressed as the specific activity of the mutant divided by the specific activity of yRs-AFP2 and multiplied by 100. […] The specific activity was measured in medium SMF−and SMF+.
Deviations are given as standard error of the mean (sem) based on the triplicate experiments. In SMF−, the medium without added salts, most of the derivatives show no decrease or only a minor decrease in antifungal activity, while in SMF+, the medium with added salts, there is a significant decrease in antifungal activity for several Rs-AFP2 isoforms.

| Substance | IC50 VALUES, B cinerea, SMF + 1 mM CaCl2/50 mM KCl (Botrytis cinerea) | IC50 VALUES, B cinerea, SMF + 5 mM CaCl2/50 mM KCl (Botrytis cinerea) | IC50 VALUES, B cinerea, SMF (Botrytis cinerea) | activity against B cinerea compared with Rs-AFP2, in words (Botrytis cinerea) | IC50 VALUES, P betae, SMF + 1 mM CaCl2/50 mM KCl (Phoma betae) | IC50 VALUES, P betae, SMF + 5 mM CaCl2/50 mM KCl (Phoma betae) | IC50 VALUES, P betae, SMF (Phoma betae) | IC50 VALUES, A pisi, SMF + 1 mM CaCl2/50 mM KCl (Ascochyta pisi) | IC50 VALUES, A pisi, SMF + 5 mM CaCl2/50 mM KCl (Ascochyta pisi) | IC50 VALUES, A pisi, SMF (Ascochyta pisi) | activity against A pisi compared with Rs-AFP2, in words (Ascochyta pisi) | IC50 VALUES, V dahliae, SMF + 1 mM CaCl2/50 mM KCl (Verticillium dahliae) | IC50 VALUES, V dahliae, SMF + 5 mM CaCl2/50 mM KCl (Verticillium dahliae) | fold activity relative to Rs-AFP2 against V dahliae (Verticillium dahliae) | IC50 VALUES, V dahliae, SMF (Verticillium dahliae) | IC50 VALUES, F culmorum, SMF + 1 mM CaCl2/50 mM KCl (Fusarium culmorum) | IC50 VALUES, F culmorum, SMF + 5 mM CaCl2/50 mM KCl (Fusarium culmorum) | fold activity relative to Rs-AFP2 against F culmorum (Fusarium culmorum) | IC50 VALUES, F culmorum, SMF (Fusarium culmorum) | IC50 VALUES, A brassicicola, SMF + 1 mM CaCl2/50 mM KCl (Alternaria brassicicola) | further results |
| --- | --- | --- | --- | --- | --- | --- | --- | --- | --- | --- | --- | --- | --- | --- | --- | --- | --- | --- | --- | --- | --- |
| yRs-AFP2/V39R: yeast-expressed Rs-AFP2 isoform, position 39 valine to arginine (QKLCQRPSGTWSGVCGNNNACKNQCIRLEKARHGSCNYRFPAHKCICYFPC; listed as Raphanus sativus) | >50 µg/mL | >100 µg/mL | 1.6 µg/mL | comparable to the activity of Rs-AFP2 | 40.0 µg/mL | 70.0 µg/mL | 1.4 µg/mL | >50 µg/mL | >100 µg/mL | 2.0 µg/mL | comparable to the activity of Rs-AFP2 | 2.3 µg/mL | 6.0 µg/mL | five-fold more active | 0.4 µg/mL | 2.3 µg/mL | 7.0 µg/mL | approximately two-fold more active | 2.2 µg/mL | 50 µg/mL | IC50 VALUES, A brassicicola, SMF + 5 mM CaCl2/50 mM KCl (Alternaria brassicicola): >100 µg/mL; IC50 VALUES, A brassicicola, SMF (Alternaria brassicicola): 2.5 µg/mL; activity against A brassicola compared with Rs-AFP2, in words (Alternaria brassicicola): comparable to the activity of Rs-AFP2; IC50 VALUES, N haematococca, SMF + 1 mM CaCl2/50 mM KCl (Nectria haematococca): 9.0 µg/mL; IC50 VALUES, N haematococca, SMF + 5 mM CaCl2/50 mM KCl (Nectria haematococca): 62.0 µg/mL; fold activity relative to Rs-AFP2 against N haematococca (Nectria haematococca): five-fold more active; IC50 VALUES, N haematococca, SMF (Nectria haematococca): 2.1 µg/mL; reduction of antifungal activity by cations, compared with wild-type Rs-AFP2 (F culmorum [1]): less reduced by the presence of cations; activity in the presence of 100 mM KCl (F culmorum [1]): fully inhibitory; growth inhibition in the presence of 5mM CaCl2 (F culmorum [1]): complete inhibition; RELATIVE SPECIFIC ACTIVITY (%) IN MEDIUM SMF+ (F culmorum [2]): 114%; RELATIVE SPECIFIC ACTIVITY (%) IN MEDIUM SMF− (F culmorum [2]): 74%; IC50 SMF+ (F culmorum [2]): 3.2; IC50 SMF− (F culmorum [2]): 4.0; antifungal activity in SMF+ relative to wild-type Rs-AFP2 (F culmorum [2]): approximately two-fold higher; antifungal activity compared with yRs-AFP2, in words (F culmorum [2]; Table 1 tests, SMF− and SMF+): maintain their antifungal activity; effect of substitution on antifungal activity in SMF+, in words (F culmorum [2]): increased antifungal activity; effect of substitution on antifungal activity in SMF−, in words (F culmorum [2]): little effect on the antifungal activity; relative specific antifungal activity (1/IC50), FIG. 6, in words (F culmorum [2]): particularly active |
| yRs-AFP2/G9R: yeast-expressed Rs-AFP2 isoform, position 9 glycine to arginine (QKLCQRPSRTWSGVCGNNNACKNQCIRLEKARHGSCNYVFPAHKCICYFPC; listed as Raphanus sativus) | >50 µg/mL | >100 µg/mL | 1.9 µg/mL | comparable to the activity of Rs-AFP2 | 2.50 µg/mL | >100 µg/mL | 2.0 µg/mL | >50 µg/mL | >100 µg/mL | 1.6 µg/mL | comparable to the activity of Rs-AFP2 | 4.0 µg/mL | 17.0 µg/mL | approximately three-fold more active | 0.5 µg/mL | 1.5 µg/mL | 7.2 µg/mL | approximately three-fold more active | 2.2 µg/mL | >50 µg/mL | IC50 VALUES, A brassicicola, SMF + 5 mM CaCl2/50 mM KCl (Alternaria brassicicola): >100 µg/mL; IC50 VALUES, A brassicicola, SMF (Alternaria brassicicola): 2.6 µg/mL; activity against A brassicola compared with Rs-AFP2, in words (Alternaria brassicicola): comparable to the activity of Rs-AFP2; IC50 VALUES, N haematococca, SMF + 1 mM CaCl2/50 mM KCl (Nectria haematococca): 16.0 µg/mL; IC50 VALUES, N haematococca, SMF + 5 mM CaCl2/50 mM KCl (Nectria haematococca): 100 µg/mL; fold activity relative to Rs-AFP2 against N haematococca (Nectria haematococca): approximately three-fold more active; IC50 VALUES, N haematococca, SMF (Nectria haematococca): 2.0 µg/mL; reduction of antifungal activity by cations, compared with wild-type Rs-AFP2 (F culmorum [1]): less reduced by the presence of cations; activity in the presence of 100 mM KCl (F culmorum [1]): fully inhibitory; growth inhibition in the presence of 5mM CaCl2 (F culmorum [1]): complete inhibition; RELATIVE SPECIFIC ACTIVITY (%) IN MEDIUM SMF+ (F culmorum [2]): 285%; RELATIVE SPECIFIC ACTIVITY (%) IN MEDIUM SMF− (F culmorum [2]): 116%; IC50 SMF+ (F culmorum [2]): 3.3; IC50 SMF− (F culmorum [2]): 3.0; antifungal activity in SMF+ relative to wild-type Rs-AFP2 (F culmorum [2]): approximately two-fold higher; antifungal activity compared with yRs-AFP2 in high salt (SMF+), in words (F culmorum [2]; Table 1 tests): approximately three times more active than yRs-AFP2; antifungal activity compared with yRs-AFP2 in low salt (SMF−), in words (F culmorum [2]; Table 1 tests): not so significantly different in low salt; effect of substitution on antifungal activity in SMF+, in words (F culmorum [2]): increased antifungal activity; effect of substitution on antifungal activity in SMF−, in words (F culmorum [2]): little effect on the antifungal activity; relative specific antifungal activity (1/IC50), FIG. 6, in words (F culmorum [2]): particularly active |
